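Abbreviation: GI50, concentration required for 50% inhibition of growth. TGI denotes the concentration required for complete inhibition of growth.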
Tests used:
Assay in all cases: NCI anticancer screen, dose series, 384-well format
[1] = system: 786-0 renal
[2] = system: A498 renal
[3] = system: A549 NSCLC
[4] = system: ACHN renal
[5] = system: BT-549 breast
[6] = system: CAKI-1 renal
[7] = system: CCRF-CEM leukemia
[8] = system: COLO 205 colon
[9] = system: DU-145 prostate
[10] = system: EKVX NSCLC
[11] = system: HCC-2998 colon
[12] = system: HCT-116 colon
[13] = system: HCT-15 colon
[14] = system: HL-60(TB) leukemia
[15] = system: HOP-62 NSCLC
[16] = system: HOP-92 NSCLC
[17] = system: HS 578T breast
[18] = system: HT29 colon
[19] = system: IGROV1 ovarian
[20] = system: K-562 leukemia
[21] = system: KM12 colon
[22] = system: LOX IMVI melanoma
[23] = system: M14 melanoma
[24] = system: MALME-3M melanoma
[25] = system: MCF7 breast
[26] = system: MDA-MB-231 breast
[27] = system: MDA-MB-435 melanoma
[28] = system: MDA-MB-468 breast
[29] = system: MOLT-4 leukemia
[30] = system: NCI-H226 lung
[31] = system: NCI-H23 lung
[32] = system: NCI-H322M lung
[33] = system: NCI-H460 NSCLC
[34] = system: NCI-H522 lung
[35] = system: NCI/ADR-RES ovarian
[36] = system: OVCAR-3 ovarian
[37] = system: OVCAR-4 ovarian
[38] = system: OVCAR-5 ovarian
[39] = system: OVCAR-8 ovarian
[40] = system: PC-3 prostate
[41] = system: RPMI-8226 leukemia
[42] = system: RXF 393 renal
[43] = system: SF-268 CNS
[44] = system: SF-295 CNS
[45] = system: SF-539 CNS
[46] = system: SK-MEL-2 melanoma
[47] = system: SK-MEL-28 melanoma
[48] = system: SK-MEL-5 melanoma
[49] = system: SK-OV-3 ovarian
[50] = system: SN12C renal
[51] = system: SNB-19 CNS
[52] = system: SNB-75 CNS
[53] = system: SW-620 colon
[54] = system: T-47D breast
[55] = system: TK-10 renal
[56] = system: U251 glioblastoma
[57] = system: UACC-257 melanoma
[58] = system: UACC-62 melanoma
[59] = system: UO-31 renal
[60] = system: SR leukemia

C#CC(F)(F)[C@]1(O)CC[C@H]2[C@@H]3CCC4=CC(=O)CCC4=C3[C@@H](c3ccc(C4CC4)cc3)C[C@@]21C
GI50 [1]: 0.0107 µM
TGI [1]: 0.024 µM
GI50 [2]: 0.0132 µM
TGI [2]: 0.0261 µM
GI50 [3]: 0.0395 µM
TGI [3]: 0.19 µM
GI50 [4]: < 0.01 µM
TGI [4]: < 0.01 µM
GI50 [5]: 0.0203 µM
TGI [5]: 0.0422 µM
GI50 [6]: < 0.01 µM
TGI [6]: < 0.01 µM
GI50 [7]: < 0.01 µM
TGI [7]: < 0.01 µM
GI50 [8]: 1.32 µM
TGI [8]: 4.58 µM
GI50 [9]: 1.54 µM
TGI [9]: 3.18 µM
GI50 [10]: < 0.01 µM
TGI [10]: 0.0109 µM
GI50 [11]: 0.0239 µM
TGI [11]: 0.0507 µM
GI50 [12]: 1.76 µM
TGI [12]: 3.35 µM
GI50 [13]: 0.245 µM
TGI [13]: 2.3 µM
GI50 [14]: < 0.01 µM
TGI [14]: < 0.01 µM
GI50 [15]: < 0.01 µM
TGI [15]: 0.0411 µM
GI50 [16]: < 0.01 µM
TGI [16]: < 0.01 µM
GI50 [17]: 0.377 µM
TGI [17]: 1.51 µM
GI50 [18]: 0.267 µM
TGI [18]: 1.18 µM
GI50 [19]: < 0.01 µM
TGI [19]: < 0.01 µM
GI50 [20]: 0.111 µM
TGI [20]: 0.32 µM
GI50 [21]: 0.012 µM
TGI [21]: 0.0255 µM
GI50 [22]: < 0.01 µM
TGI [22]: < 0.01 µM
GI50 [23]: 0.0376 µM
TGI [23]: 0.146 µM
GI50 [24]: < 0.01 µM
TGI [24]: < 0.01 µM
GI50 [25]: 1.48 µM
TGI [25]: 7.97 µM
GI50 [26]: < 0.01 µM
TGI [26]: < 0.01 µM
GI50 [27]: 1.25 µM
TGI [27]: 3.51 µM
GI50 [28]: < 0.01 µM
TGI [28]: < 0.01 µM
GI50 [29]: 0.0174 µM
TGI [29]: 0.0316 µM
GI50 [30]: 0.218 µM
TGI [30]: 2 µM
GI50 [31]: < 0.01 µM
TGI [31]: < 0.01 µM
GI50 [32]: 2.48 µM
TGI [32]: 6.89 µM
GI50 [33]: 1.85 µM
TGI [33]: 3.41 µM
GI50 [34]: < 0.01 µM
TGI [34]: < 0.01 µM
GI50 [35]: 0.012 µM
TGI [35]: 0.0448 µM
GI50 [36]: < 0.01 µM
TGI [36]: < 0.01 µM
GI50 [37]: < 0.01 µM
TGI [37]: < 0.01 µM
GI50 [38]: 0.574 µM
TGI [38]: 2.41 µM
GI50 [39]: 0.0616 µM
TGI [39]: 0.934 µM
GI50 [40]: 0.0196 µM
TGI [40]: 0.0518 µM
GI50 [41]: < 0.01 µM
TGI [41]: 0.0186 µM
GI50 [42]: < 0.01 µM
TGI [42]: < 0.01 µM
GI50 [43]: 0.0112 µM
TGI [43]: 0.0258 µM
GI50 [44]: 0.0302 µM
TGI [44]: 0.0834 µM
GI50 [45]: 0.0172 µM
TGI [45]: 0.032 µM
GI50 [46]: 0.0646 µM
TGI [46]: 0.244 µM
GI50 [47]: 2.03 µM
TGI [47]: 4.34 µM
GI50 [48]: 1.7 µM
TGI [48]: 3.1 µM
GI50 [49]: 0.0342 µM
TGI [49]: 0.111 µM
GI50 [50]: 2.01 µM
TGI [50]: 4.06 µM
GI50 [51]: 3.02 µM
TGI [51]: 8.61 µM
GI50 [52]: 0.0142 µM
TGI [52]: 0.0282 µM
GI50 [53]: 0.334 µM
TGI [53]: 1.39 µM
GI50 [54]: 0.0806 µM
TGI [54]: 1.77 µM
GI50 [55]: 0.0214 µM
TGI [55]: 0.104 µM
GI50 [56]: 0.0975 µM
TGI [56]: 0.444 µM
GI50 [57]: 0.459 µM
TGI [57]: 2.11 µM
GI50 [58]: 0.0176 µM
TGI [58]: 0.0328 µM
GI50 [59]: < 0.01 µM
TGI [59]: < 0.01 µM

CC(C)(C(=O)NCC(F)(F)C(F)(F)F)C(=O)N[C@@H]1C(=O)Nc2ccccc2-c2ccccc21
GI50 [1]: 58.5 µM
TGI [1]: > 100 µM
GI50 [2]: 47 µM
TGI [2]: > 100 µM
GI50 [3]: 33.6 µM
TGI [3]: > 100 µM
GI50 [4]: 54.8 µM
TGI [4]: > 100 µM
GI50 [5]: 39.2 µM
TGI [5]: > 100 µM
GI50 [6]: > 100 µM
TGI [6]: > 100 µM
GI50 [7]: 18.6 µM
TGI [7]: 69.8 µM
GI50 [8]: 44.6 µM
TGI [8]: > 100 µM
GI50 [9]: 55.9 µM
TGI [9]: > 100 µM
GI50 [10]: 29 µM
TGI [10]: > 100 µM
GI50 [11]: 24 µM
TGI [11]: > 100 µM
GI50 [13]: 43.3 µM
TGI [13]: > 100 µM
GI50 [15]: 74.6 µM
TGI [15]: > 100 µM
GI50 [16]: 32.5 µM
TGI [16]: > 100 µM
GI50 [17]: 32 µM
TGI [17]: > 100 µM
GI50 [18]: 37.2 µM
TGI [18]: > 100 µM
GI50 [19]: 92.1 µM
TGI [19]: > 100 µM
GI50 [20]: 44.8 µM
TGI [20]: > 100 µM
GI50 [21]: 53.2 µM
TGI [21]: > 100 µM
GI50 [22]: > 100 µM
TGI [22]: > 100 µM
GI50 [23]: 89.2 µM
TGI [23]: > 100 µM
GI50 [24]: 22.2 µM
TGI [24]: > 100 µM
GI50 [25]: 22 µM
TGI [25]: > 100 µM
GI50 [26]: 51.2 µM
TGI [26]: > 100 µM
GI50 [27]: 92.7 µM
TGI [27]: > 100 µM
TGI [28]: 33.3 µM
GI50 [29]: 11.5 µM
TGI [29]: 25.6 µM
GI50 [30]: 45.8 µM
TGI [30]: > 100 µM
GI50 [31]: 41.1 µM
TGI [31]: > 100 µM
GI50 [32]: > 100 µM
TGI [32]: > 100 µM
GI50 [33]: 46 µM
TGI [33]: > 100 µM
GI50 [34]: 42.4 µM
TGI [34]: > 100 µM
GI50 [35]: 30 µM
TGI [35]: > 100 µM
GI50 [36]: 36.3 µM
TGI [36]: > 100 µM
GI50 [37]: 17.5 µM
TGI [37]: 76.3 µM
GI50 [38]: > 100 µM
TGI [38]: > 100 µM
GI50 [39]: 69.9 µM
TGI [39]: > 100 µM
GI50 [40]: 41.2 µM
TGI [40]: > 100 µM
GI50 [41]: 18.8 µM
TGI [41]: 76.4 µM
GI50 [42]: 27.3 µM
TGI [42]: > 100 µM
GI50 [43]: > 100 µM
TGI [43]: > 100 µM
GI50 [44]: 52.5 µM
TGI [44]: > 100 µM
GI50 [45]: > 100 µM
TGI [45]: > 100 µM
GI50 [47]: 46.9 µM
TGI [47]: > 100 µM
GI50 [48]: 39.1 µM
TGI [48]: > 100 µM
GI50 [49]: 90.8 µM
TGI [49]: > 100 µM
GI50 [50]: > 100 µM
TGI [50]: > 100 µM
GI50 [51]: 63.5 µM
TGI [51]: > 100 µM
GI50 [52]: 63.6 µM
TGI [52]: > 100 µM
GI50 [60]: 23.3 µM
TGI [60]: > 100 µM
GI50 [53]: > 100 µM
TGI [53]: > 100 µM
GI50 [54]: 6.31 µM
TGI [54]: 48.1 µM
GI50 [55]: 88.7 µM
TGI [55]: > 100 µM
GI50 [56]: > 100 µM
TGI [56]: > 100 µM
GI50 [58]: 20.4 µM
TGI [58]: > 100 µM
GI50 [59]: 74.6 µM
TGI [59]: > 100 µM

From PubChem BioAssay (NCI)
